According to US12612407B2, “Imidazo[2,1-f][1,2,4]triazin-4-amine derivatives as TLR7 agonist” (BEIGENE, LTD., priority 2020, dated 2026):

Assays:
human TLR 8 protein = target: T1, human TLR 8 protein (Homo sapiens, UniProt Q9NR97); test: TLR8 Stimulation determined using HEK-Blue Detection; type: cell-based; conditions: HEK-Blue hTLR8 cells, 16 hr, percentages of maximum activation with Resiquimod or Motolimod, Table 3
T1 construct: expressed in transfected cells; host or cells: HEK293 (HEK-Blue hTLR8)
T1 sequence (Q9NR97 27-1041): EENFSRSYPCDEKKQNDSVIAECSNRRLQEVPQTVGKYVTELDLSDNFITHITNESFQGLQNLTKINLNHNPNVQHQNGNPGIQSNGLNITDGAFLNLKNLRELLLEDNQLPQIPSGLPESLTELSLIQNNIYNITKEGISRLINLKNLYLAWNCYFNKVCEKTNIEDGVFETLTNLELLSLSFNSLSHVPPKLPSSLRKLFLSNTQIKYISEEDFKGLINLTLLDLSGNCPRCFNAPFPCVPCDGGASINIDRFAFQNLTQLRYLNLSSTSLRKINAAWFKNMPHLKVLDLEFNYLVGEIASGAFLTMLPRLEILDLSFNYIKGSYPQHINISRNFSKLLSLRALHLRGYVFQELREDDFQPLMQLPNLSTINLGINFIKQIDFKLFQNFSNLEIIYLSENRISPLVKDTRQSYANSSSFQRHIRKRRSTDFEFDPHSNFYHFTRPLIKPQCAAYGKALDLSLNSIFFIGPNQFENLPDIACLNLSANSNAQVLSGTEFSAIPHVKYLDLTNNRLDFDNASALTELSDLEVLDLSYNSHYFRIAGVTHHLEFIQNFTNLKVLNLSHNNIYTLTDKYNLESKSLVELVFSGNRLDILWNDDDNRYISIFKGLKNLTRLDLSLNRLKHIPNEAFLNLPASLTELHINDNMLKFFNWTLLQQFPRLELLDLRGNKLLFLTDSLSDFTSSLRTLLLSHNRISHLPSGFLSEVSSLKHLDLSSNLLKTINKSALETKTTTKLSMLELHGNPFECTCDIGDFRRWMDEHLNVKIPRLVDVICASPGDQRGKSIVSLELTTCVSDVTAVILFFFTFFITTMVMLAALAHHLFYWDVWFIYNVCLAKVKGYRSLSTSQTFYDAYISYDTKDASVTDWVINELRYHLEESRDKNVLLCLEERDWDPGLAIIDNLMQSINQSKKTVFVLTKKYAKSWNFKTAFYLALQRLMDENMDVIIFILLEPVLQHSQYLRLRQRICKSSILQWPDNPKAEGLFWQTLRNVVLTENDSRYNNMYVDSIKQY
Source text: TLR8 Stimulation determined using HEK-Blue Detection
(§1) This assay was designed for studying the stimulation of human TLR 8 protein in HEK-Blue hTLR8 tool cell line by monitoring the activation of NF-κB. HEK-Blue hTLR8 cells were obtained by co-transfection of the hTLR8 gene and an optimized secreted embryonic alkaline phosphatase (SEAP) reporter gene into HEK293 cells. The SEAP reporter gene was placed under the control of the IFN-β minimal promoter fused to five NF-κB and AP-1-binding sites. Stimulation with a TLR 8 ligand activates NF-κB and AP-1 which induce the expression of SEAP. Levels of SEAP can be easily determined with HEK-Blue Detection, a cell culture medium that allows for real-time detection of SEAP. HEK-Blue Detection contains all the nutrients necessary for cell growth and a specific SEAP color substrate. The hydrolysis of the substrate by SEAP produces a purple/blue color that can be measured with a spectrophotometer.
(§2) When growing to 50-80% confluency, HEK-Blue hTLR7/8 cells were plated into 96-well plate (costar 3599) at a density of 40000 cells/well. Then compounds were added with serial dilutions over 10 points with a 1 nM-10 uM final concentration range in 0.1% DMSO/HEK-Blue Detection. The plates were then incubated for 16 hr at 37° C. in 5% CO2. The optical density at 620-655 nm was read on BMG PHERAstar FSX instrument. The EC50 for each compound was determined by calculating the percentages of the maximum activation identified with Resiquimod or Motolimod.

human TLR7 = target: T2, human TLR7 (Homo sapiens, UniProt Q9NYK1); test: TLR7 Stimulation Determined Using HEK-Blue Detection; type: cell-based; conditions: HEK-Blue hTLR7 cells, 16 hr, percentages of maximum activation with Resiquimod, Table 1, B233-B247
T2 construct: host or cells: HEK293 (HEK-Blue hTLR7)
T2 sequence (Q9NYK1 27-1049): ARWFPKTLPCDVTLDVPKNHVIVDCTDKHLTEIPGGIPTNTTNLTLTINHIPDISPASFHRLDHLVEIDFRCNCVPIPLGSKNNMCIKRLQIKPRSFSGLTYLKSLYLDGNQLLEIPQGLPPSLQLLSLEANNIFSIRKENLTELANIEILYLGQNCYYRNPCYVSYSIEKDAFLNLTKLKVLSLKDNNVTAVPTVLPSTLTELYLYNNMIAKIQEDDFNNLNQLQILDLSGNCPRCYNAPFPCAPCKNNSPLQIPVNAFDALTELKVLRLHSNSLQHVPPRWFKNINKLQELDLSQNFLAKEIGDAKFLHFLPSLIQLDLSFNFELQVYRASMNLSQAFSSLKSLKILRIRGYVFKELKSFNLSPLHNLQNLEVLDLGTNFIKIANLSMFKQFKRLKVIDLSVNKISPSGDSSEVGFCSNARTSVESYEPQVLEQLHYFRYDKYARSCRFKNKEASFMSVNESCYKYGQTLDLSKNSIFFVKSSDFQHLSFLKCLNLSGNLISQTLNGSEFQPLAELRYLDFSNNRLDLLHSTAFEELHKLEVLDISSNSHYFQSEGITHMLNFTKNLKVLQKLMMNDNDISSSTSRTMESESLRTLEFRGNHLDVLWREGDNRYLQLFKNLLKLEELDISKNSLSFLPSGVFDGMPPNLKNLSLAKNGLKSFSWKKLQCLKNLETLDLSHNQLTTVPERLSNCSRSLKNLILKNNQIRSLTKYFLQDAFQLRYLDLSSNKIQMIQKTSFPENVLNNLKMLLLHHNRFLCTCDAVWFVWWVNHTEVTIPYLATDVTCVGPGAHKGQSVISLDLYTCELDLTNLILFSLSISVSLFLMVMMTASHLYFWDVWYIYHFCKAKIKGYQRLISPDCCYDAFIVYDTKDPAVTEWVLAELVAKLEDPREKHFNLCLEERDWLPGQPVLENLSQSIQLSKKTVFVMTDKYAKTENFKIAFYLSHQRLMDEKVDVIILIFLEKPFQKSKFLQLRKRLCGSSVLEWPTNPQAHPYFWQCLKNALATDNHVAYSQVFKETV
Source text: TLR7 Stimulation Determined Using HEK-Blue Detection
as §1, with “TLR7” for “TLR 8”, “hTLR7” for “hTLR8”
as §2, with “HEK-Blue hTLR7” for “HEK-Blue hTLR7/8”, “a 0.04” for “a 1”, “nM-10 μM” for “nM-10 uM”, “5% CO2 and vortex for 30 s before measurement.” for “5% CO2.”, “with Resiquimod.” for “with Resiquimod or Motolimod.”

For `CCCC(O)COc1nc(N)c2ncc(Cc3cnc(N4CCC(CNC)CC4)c(C)c3)n2n1` (stereo not drawn) [Compound B236, 1-((4-amino-7-((5-methyl-6-(4-((methylamino)methyl)piperidin-1-yl)pyridin-3-yl)methyl)imidazo[2,1-f][1,2,4]triazin-2-yl)oxy)pentan-2-ol], the EC50 (human TLR 8 protein) was greater than 10000 nM and the EC50 (human TLR7) was 648 nM.

Compound `CCCC(CO)Oc1nc(N)c2ncc(Cc3cnc(N4CCC(CNC)CC4)c(C)c3)n2n1` (stereo not drawn) [Compound B235, 2-((4-amino-7-((5-methyl-6-(4-((methylamino)methyl)piperidin-1-yl)pyridin-3-yl)methyl)imidazo[2,1-f][1,2,4]triazin-2-yl)oxy)pentan-1-ol] has an EC50 (human TLR 8 protein) of 3630 nM and an EC50 (human TLR7) of 63 nM.

`CCC[C@H](C)Nc1nc(N)c2ncc(Cc3cnc(N4CCN(C(=O)CN)CC4)c(C)c3)n2n1` [Compound B246, (S)-2-amino-1-(4-(5-((4-amino-2-(pentan-2-ylamino)imidazo[2,1-f][1,2,4]triazin-7-yl)methyl)-3-methylpyridin-2-yl)piperazin-1-yl)ethan-1-one] showed an EC50 (human TLR 8 protein) greater than 10000 nM and an EC50 (human TLR7) of 10.9 nM.

Work on `CCC[C@H](C)Oc1nc(N)c2ncc(Cc3ccc(C4CCNCC4)nc3F)n2n1` [Compound B239, (S)-7-((2-fluoro-6-(piperidin-4-yl)pyridin-3-yl)methyl)-2-(pentan-2-yloxy)imidazo[2,1-f][1,2,4]triazin-4-amine] yielded an EC50 (human TLR 8 protein) of 122 nM and an EC50 (human TLR7) of 3.3 nM.

`CCC[C@H](C)Oc1nc(N)c2ncc(Cc3cnc(N4CCNCC4)c(OC)c3)n2n1` [Compound B241, (S)-7-((5-methoxy-6-(piperazin-1-yl)pyridin-3-yl)methyl)-2-(pentan-2-yloxy)imidazo[2,1-f][1,2,4]triazin-4-amine] gave an EC50 (human TLR 8 protein) of 445 nM and an EC50 (human TLR7) of 5.5 nM.

Compound `CCCC(CCO)Oc1nc(N)c2ncc(Cc3ccc(C4CCNCC4)nc3F)n2n1` (stereo not drawn) [Compound B242, 3-((4-amino-7-((2-fluoro-6-(piperidin-4-yl)pyridin-3 yl)methyl)imidazo[2,1-f][1,2,4]triazin-2-yl)oxy)hexan-1-ol] has an EC50 (human TLR 8 protein) of 74 nM and an EC50 (human TLR7) of 9.8 nM.

For `CCC[C@H](C)Nc1nc(N)c2ncc(Cc3cnc(N4CCC(CN(C)CCNC)CC4)c(C)c3)n2n1` [Compound B245, (S)-7-((5-methyl-6-(4-((methyl(2-(methylamino)ethyl)amino)methyl)piperidin-1-yl)pyridin-3-yl)methyl)-N2-(pentan-2-yl)imidazo[2,1-f][1,2,4]triazine-2,4-diamine], the EC50 (human TLR 8 protein) was 485 nM and the EC50 (human TLR7) was 2.5 nM.

In the case of `CCC[C@H](C)Nc1nc(N)c2ncc(Cc3cnc(C4CCNCC4)c(C)c3)n2n1` [Compound B240, (S)-7-((5-methyl-6-(piperidin-4-yl)pyridin-3-yl)methyl)-N2-(pentan-2-yl)imidazo[2,1-f][1,2,4]triazine-2,4-diamine], the EC50 (human TLR 8 protein) is reported as 1510 nM and the EC50 (human TLR7) is reported as 1 nM.

With `CCCC(C)Oc1nc(N)c2ncc(Cc3cnc(N4CCC(CNCC(C)C)CC4)c(C)c3)n2n1` (stereo not drawn) [Compound B234, 7-((6-(4-((isobutylamino)methyl)piperidin-1-yl)-5-methylpyridin-3-yl)methyl)-2-(pentan-2-yloxy)imidazo[2,1-f][1,2,4]triazin-4-amine] the EC50 (human TLR 8 protein) was 451 nM and the EC50 (human TLR7) was 5.3 nM.

Compound `CCC[C@H](C)Nc1nc(N)c2ncc(Cc3cnc(N4CCN(C(=O)CN(C)CCNC)CC4)c(C)c3)n2n1` [Compound B244, (S)-1-(4-(5-((4-amino-2-(pentan-2-ylamino)imidazo[2,1-f][1,2,4]triazin-7-yl)methyl)-3-methylpyridin-2-yl)piperazin-1-yl)-2-(methyl(2-(methylamino)ethyl)amino)ethan-1-one] has an EC50 (human TLR 8 protein) greater than 10000 nM and an EC50 (human TLR7) of 12 nM.

`CCC[C@H](C)Nc1nc(N)c2ncc(Cc3cnc(N4CCN[C@@H](CC#N)C4)c(C)c3)n2n1` [Compound B233, 2-((S)-4-(5-((4-amino-2-(((S)-pentan-2-yl)amino)imidazo[2,1-f][1,2,4]triazin-7-yl)methyl)-3-methylpyridin-2-yl)piperazin-2-yl)acetonitrile] showed an EC50 (human TLR 8 protein) greater than 10000 nM and an EC50 (human TLR7) of 18.4 nM.

Compound `CCC[C@H](C)Oc1nc(N)c2ncc(Cc3ccn(C4CCNCC4)c(=O)c3)n2n1` [Compound B243, (S)-4-((4-amino-2-(pentan-2-yloxy)imidazo[2,1-f][1,2,4]triazin-7-yl)methyl)-1-(piperidin-4-yl)pyridin-2(1H)-one] has an EC50 (human TLR 8 protein) of 365 nM and an EC50 (human TLR7) of 35 nM.
